This passage reports GI50 and TGI results from PubChem BioAssay (NCI).

Test systems include SK-MEL-2 melanoma; SF-539 CNS; MOLT-4 leukemia; SNB-75 CNS; SR leukemia; RXF 393 renal; NCI-H226 lung; BT-549 breast; MALME-3M melanoma; 786-0 renal.
Assay in all cases: DTP human tumour cell line panel, 48 h

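A five-concentration, 48-hour dose response in 96-well plates underlies each endpoint, interpolated linearly between surrounding concentrations. GI50 = concentration required for 50% inhibition of growth. Definition used: TGI = concentration required for complete inhibition of growth.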

For the compound `O=C(CCc1ccco1)NC1CCN(CC2(c3ccc(Cl)cc3)CCC2)CC1`, the GI50 is 16.9 µM with SK-MEL-2 melanoma; 13.4 µM in the assay with SF-539 CNS; 8.37 µM in the assay on MOLT-4 leukemia; 10 µM in the assay on SNB-75 CNS; 6.93 µM in the assay on SR leukemia; 8.53 µM in the assay with RXF 393 renal. Further, the GI50 is 20.8 µM in the assay with NCI-H226 lung, 15.2 µM in the assay with BT-549 breast, 13.8 µM in the assay with MALME-3M melanoma and 12.6 µM in the assay with 786-0 renal. For the same compound, the TGI is 31.7 µM with SK-MEL-2 melanoma; 26.6 µM in the assay on SF-539 CNS; 32.9 µM in the assay with MOLT-4 leukemia; 21.7 µM in the assay with SNB-75 CNS; 28.7 µM with SR leukemia; 22.6 µM in the assay with RXF 393 renal. The total growth inhibition concentration (TGI) was found to be 60.2 µM with NCI-H226 lung, 29.6 µM in the assay with BT-549 breast, 29.4 µM with MALME-3M melanoma and 25.8 µM in the assay with 786-0 renal.
As for `CC(N)(Cc1c[nH]c2ccccc12)C(=O)O` (stereo not given), the GI50 with SK-MEL-2 melanoma, in the assay with SF-539 CNS, with MOLT-4 leukemia, with SNB-75 CNS, in the assay with SR leukemia and in the assay on RXF 393 renal was above 2500 µM throughout. Also, the GI50 with NCI-H226 lung was above 2500 µM; with BT-549 breast it was above 2500 µM; with MALME-3M melanoma, 522 µM; with 786-0 renal, above 2500 µM. Also, the TGI in the assay with SK-MEL-2 melanoma, in the assay on SF-539 CNS, with MOLT-4 leukemia, in the assay with SNB-75 CNS, in the assay on SR leukemia and in the assay on RXF 393 renal was above 2500 µM in each case. Moreover, the total growth inhibition concentration (TGI) in the assay with NCI-H226 lung, in the assay with BT-549 breast, in the assay on MALME-3M melanoma and with 786-0 renal was above 2500 µM each time.
On to `CSC1=Nc2c(c(C)c(-c3ccccc3)n2CCCCl)C2=NC(=O)CN12`, for which the GI50 was 10.4 µM in the assay with SK-MEL-2 melanoma; 3.42 µM with SF-539 CNS; 3.93 µM in the assay with MOLT-4 leukemia; 2.83 µM with SNB-75 CNS; 3.45 µM with SR leukemia; 11.3 µM in the assay on RXF 393 renal. Moreover, the GI50 in the assay on NCI-H226 lung is 11 µM; with BT-549 breast, 4.93 µM; in the assay on MALME-3M melanoma, 8.38 µM; with 786-0 renal, 8.57 µM. Moreover, the concentration for total growth inhibition (TGI) in the assay on SK-MEL-2 melanoma was 27.6 µM; with SF-539 CNS, 14 µM; with MOLT-4 leukemia, above 100 µM; in the assay on SNB-75 CNS, 11.6 µM; in the assay on SR leukemia, above 100 µM; in the assay on RXF 393 renal, 29.8 µM. Besides, the TGI in the assay on NCI-H226 lung worked out at 29.8 µM; in the assay on BT-549 breast, 35.6 µM; in the assay with MALME-3M melanoma, 23.5 µM; with 786-0 renal, 61.7 µM.
As for `CCc1nc(-n2c(CC)nc3ccccc3c2=O)nc(N)c1-c1ccc(Cl)cc1`, the GI50 in the assay on SK-MEL-2 melanoma was above 100 µM; in the assay on SF-539 CNS, 30.4 µM; in the assay on MOLT-4 leukemia, 73.3 µM; in the assay with SNB-75 CNS it was above 100 µM; with SR leukemia, above 100 µM; in the assay with RXF 393 renal, above 100 µM. Further, the GI50 was above 100 µM in the assay with NCI-H226 lung, above 100 µM with BT-549 breast, above 80.1 µM in the assay with MALME-3M melanoma and 8.13 µM in the assay with 786-0 renal. Further, the TGI in the assay with SK-MEL-2 melanoma, in the assay on SF-539 CNS, in the assay with MOLT-4 leukemia, in the assay with SNB-75 CNS, in the assay on SR leukemia and in the assay on RXF 393 renal was above 100 µM throughout. The TGI in the assay with NCI-H226 lung, in the assay with BT-549 breast, with MALME-3M melanoma and with 786-0 renal was above 100 µM throughout.
`COc1ccccc1-c1ccc2nc(NC(=O)Nc3cc(C(F)(F)F)cc(C(F)(F)F)c3)sc2c1`: the GI50 is 2.09 µM in the assay with SK-MEL-2 melanoma; 1.99 µM in the assay with SF-539 CNS; 1.58 µM with MOLT-4 leukemia; 2.25 µM in the assay with SNB-75 CNS; 1.76 µM in the assay with SR leukemia; 2.19 µM in the assay on RXF 393 renal. In addition, the GI50 with NCI-H226 lung was 2.16 µM; in the assay with BT-549 breast it was 1.62 µM; with MALME-3M melanoma, 1.81 µM; with 786-0 renal, 1.44 µM. Moreover, the total growth inhibition concentration (TGI) in the assay on SK-MEL-2 melanoma is 6.09 µM; in the assay on SF-539 CNS, 5.5 µM; in the assay on MOLT-4 leukemia, 7.24 µM; with SNB-75 CNS, 11.8 µM; in the assay with SR leukemia, 5.25 µM; in the assay on RXF 393 renal, 6.18 µM. Also, the TGI in the assay with NCI-H226 lung was determined as 5.67 µM; with BT-549 breast it was 3.72 µM; in the assay with MALME-3M melanoma, 4.29 µM; with 786-0 renal it was 3.25 µM.
Turning to `Nc1ccc(-c2ccc(Nc3cc(S(=O)(=O)O)c(N)c4c3C(=O)c3ccccc3C4=O)cc2)c(S(=O)(=O)O)c1`, the TGI in the assay with SK-MEL-2 melanoma, with SF-539 CNS, with MOLT-4 leukemia, in the assay on SNB-75 CNS, with SR leukemia and in the assay on RXF 393 renal was above 100 µM throughout. Moreover, the TGI in the assay on NCI-H226 lung, with BT-549 breast, in the assay on MALME-3M melanoma and in the assay on 786-0 renal was above 100 µM each time.
`COc1ccc2c(O)c(/C=C3\N=Nc4ncccc43)oc2c1C[C@H]1CCNC[C@H]1F`: the GI50 in the assay with SK-MEL-2 melanoma was 1.1 µM; in the assay on SF-539 CNS it was 0.252 µM; in the assay on MOLT-4 leukemia, 0.294 µM; in the assay on SNB-75 CNS, 0.185 µM; with SR leukemia it was 0.03 µM; with RXF 393 renal, 0.183 µM. The GI50 in the assay on NCI-H226 lung was 0.16 µM; in the assay on BT-549 breast, 0.211 µM; in the assay on MALME-3M melanoma it was 1.61 µM; in the assay on 786-0 renal, 0.241 µM. Further, the total growth inhibition concentration (TGI) stood at 3.73 µM in the assay on SK-MEL-2 melanoma; 0.952 µM in the assay on SF-539 CNS; 1.62 µM in the assay on MOLT-4 leukemia; 1.54 µM in the assay with SNB-75 CNS; 3.18 µM with SR leukemia; 0.55 µM in the assay on RXF 393 renal. The TGI in the assay with NCI-H226 lung was 5.29 µM; with BT-549 breast, 2.3 µM; in the assay on MALME-3M melanoma it was 5.15 µM; with 786-0 renal, 1.61 µM.
With `CCC(C(=O)c1cccs1)C(O)(C(F)(F)F)C(F)(F)F` (stereo not given), the total growth inhibition concentration (TGI) with SK-MEL-2 melanoma, in the assay with SF-539 CNS, in the assay with MOLT-4 leukemia, with SNB-75 CNS, in the assay with SR leukemia and in the assay on RXF 393 renal was above 100 µM each time. For the same compound, the TGI in the assay with NCI-H226 lung, with BT-549 breast, with MALME-3M melanoma and in the assay with 786-0 renal was above 100 µM throughout.
